In patent US9975983B2, “Bio-reducible self-assembled liquid crystalline block copolymer for drug delivery” (UNIVERSITY OF CONNECTICUT, priority 2014, dated 2018):

How the values were obtained:
[1] = test system: A549 cells; assay: Intracellular uptake and release by CLSM in A549 cells; type: cell-based, human; conditions: 10 μg/mL DOX equivalents
Method: (§1) A549 (cancer cells) and NIH3T3 (normal cells) cells were seeded at a density of 1.0×10^5 cells/well in an 8-well chamber of a Lab-Tek II chamber slide and preincubated for 24 h at 37° C. and 5% CO2. Serum-free DMEM containing free DOX and DOX-NPs at equivalent doses (10 μg/mL) was added to each well, followed by incubation for 30 min, 2 h and 4 h at 37° C. The cells were then rinsed with PBS, and fixed with 4% formaldehyde solution for 10 min. Cover glasses were then placed on glass slides. The cellular uptake and release behavior of DOX-encapsulated SS or thioester NPs were imaged by confocal laser scanning microscopy (CLSM) (Leica, England) at an excitation wavelength of 488 nm for DOX. Since DOX itself is fluorescent, it was used directly to investigate cellular uptake without additional fluorescent labeling in of the nanoparticles.

[2] = test system: NIH3T3 cells; assay: Intracellular uptake and release by CLSM in NIH3T3 cells; type: cell-based, Mouse; conditions: 10 μg/mL DOX equivalents, 30 min to 4 h
Method: as §1

[3] = test system: A549 cells; assay: MTT cytotoxicity in A549 cells; type: cell-based, human; conditions: 24 h
Method: (§2) A549 and NIH3T3 cells (7500 cells/well) were seeded on 96-well plates and cultured in 200 μL of DMEM supplemented with 10% FBS, 1% antibiotics, and 1% L-glutamine for 24 h at 37° C. and 5% CO2. After incubation, various concentrations of DOX-encapsulated SS or thioester NPs and free DOX (1-50 μg/mL of DOX equivalents) dissolved in DMEM without supplements were added. After 24 h of incubation, cytotoxicity was determined using 3-[4,5-dimethylthiazol-2-yl]-[…] bromide dye (MTT dye, final concentration of 0.5 mg/mL) uptake at 540 nm on a microplate reader (Tecan group Ltd., Mannedorf, Switzerland).

[4] = test system: HeLa cells; assay: Cellular uptake by CLSM in HeLa cells; type: cell-based
Method: To observe the cellular uptake, HeLa cells (cancer cells) were seeded at a density of 1.0×10^5 cells/well in an 8-well chamber of a Lab-Tek II chamber slide and preincubated for 24 h at 37° C. and 5% CO2. […] The cells were then rinsed with PBS, stained with 10 μM Draq5 and fixed with 4% formaldehyde solution for 10 min. Cover glasses were then placed on glass slides. The cellular uptake of free DOX and DOX-NPs was imaged by CLSM at an excitation wavelength of 488 nm for DOX. To quantify cellular uptake, HeLa cells (5×10^5 cells/well) in 0.5 mL were grown on a 24-well plate at 37° C. in a humidified atmosphere of 5% CO2 for 24 h. Serum-free DMEM containing free DOX and DOX-NPs at equivalent doses (25 μg/mL) was added to the cells which were subsequently incubated for 2 h. The cells were then washed three times with PBS, harvested by trypsinization and transferred into Fluorescence Activated Cell Sorter (FACS) tubes. All samples were analyzed by flow cytometry (FACSCalibur, BD Biosciences, San Jose, Calif.) to determine cellular internalization. Fluorescence measurements of intracellular DOX were performed in the FL2 channel.

[5] = test system: HeLa cells; assay: MTT cytotoxicity in HeLa cells; type: cell-based; conditions: equal DOX concentrations
Method: as §2, with “HeLa cells” for “A549 and NIH3T3 cells”, “of the blank nanoparticles (0.2-1 mg/mL), DOX-NPs,” for “of DOX-encapsulated SS or thioester NPs”, “of incubation with free DOX and DOX-NPs, and 48 h with blank nanoparticles,” for “of incubation,”, “Ltd., Männedorf,” for “Ltd., Mannedorf,”

[6] = in vivo; cited from earlier work

Row | Structure (SMILES) | Location of red DOX fluorescent signal ([1]; 30 min) | Location of red DOX fluorescent signal ([1]; 2 h and 4 h) | Location of red DOX fluorescent signal [2] | Decrease of cell viability ([3]; 1-50 μg/mL DOX, dose-dependent) | Cytotoxicity relative to DOX-encapsulated thioester-NPs ([3]; all DOX concentrations) | Red DOX fluorescent signal in cells ([4]; 2 h) | Cell morphology ([4]; 4 h) | Red DOX fluorescent signal in cells ([4]; 4 h) | Relative cytotoxicity [5] | Biodistribution of free dye [6]
1 | COc1cccc2c1C(=O)c1c(O)c3c(c(O)c1C2=O)C[C@@](O)(C(=O)CO)C[C@@H]3O[C@H]1C[C@H](N)[C@H](O)[C@H](C)O1 [free DOX, doxorubicin] | entered the cellular nuclei | strong red signal in the cellular nuclei | red signal was observed in the cellular nuclei | 5-82% | significantly higher | red fluorescent signal was observed | cell shrinkage and blebbing | significant increases in the red signal | significantly higher cytotoxicity than DOX-encapsulated NPs | 
2 | CCCCCCCCCCCCCCCCCCN1C(=CC=CC=CC=CC2=[N+](CCCCCCCCCCCCCCCCCC)c3ccccc3C2(C)C)C(C)(C)c2ccccc21.[I-] [free hydrophobic DiR, 1,1′-Dioctadecyl-3,3,3′,3′-tetramethylindotricarbocyanine iodide] |  |  |  |  |  |  |  |  |  | accumulated in liver from 1 h to 24 h with negligible tumor accumulation
